Test results reported in the supplement of paper PMC10307832.

Tests used:
Experiment in all cases: relative viability (nuclei count vs DMSO), 5 days (fraction); higher = more cells survive
Dovitinib + Tozasertib = compound: CN1CCN(c2ccc3nc(-c4c(N)c5c(F)cccc5[nH]c4=O)[nH]c3c2)CC1 [Dovitinib] + Cc1cc(Nc2cc(N3CCN(C)CC3)nc(Sc3ccc(NC(=O)C4CC4)cc3)n2)n[nH]1 [Tozasertib] (partner 0.1 µM)
Method in brief: (§1)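 Each reported value is a median over duplicate plates. It expresses relative viability: treated-well nuclei count divided by vehicle-well nuclei count. Lung cancer cell lines in 1536-well plates were dosed by pin tool a day after seeding, alone with one drug or with a fixed anchor-drug dose plus five library-drug doses (not always all listed) in √10 steps, and nuclei were counted after 5 days.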

Dovitinib + Dasatinib = compound: CN1CCN(c2ccc3nc(-c4c(N)c5c(F)cccc5[nH]c4=O)[nH]c3c2)CC1 [Dovitinib] + Cc1nc(Nc2ncc(C(=O)Nc3c(C)cccc3Cl)s2)cc(N2CCN(CCO)CC2)n1 [Dasatinib] (partner 0.075 µM)
Method in brief: as §1

Dovitinib + Luminespib = compound: CN1CCN(c2ccc3nc(-c4c(N)c5c(F)cccc5[nH]c4=O)[nH]c3c2)CC1 [Dovitinib] + CCNC(=O)c1noc(-c2cc(C(C)C)c(O)cc2O)c1-c1ccc(CN2CCOCC2)cc1 [Luminespib] (partner 0.01 µM)
Method in brief: as §1

Dovitinib + Phenformin = compound: CN1CCN(c2ccc3nc(-c4c(N)c5c(F)cccc5[nH]c4=O)[nH]c3c2)CC1 [Dovitinib] + N=C(N)NC(=N)NCCc1ccccc1 [Phenformin] (partner 250 µM)
Method in brief: as §1

Dovitinib + OSI-027 = compound: CN1CCN(c2ccc3nc(-c4c(N)c5c(F)cccc5[nH]c4=O)[nH]c3c2)CC1 [Dovitinib] + COc1cccc2cc(-c3nc([C@H]4CC[C@H](C(=O)O)CC4)n4ncnc(N)c34)[nH]c12 [OSI-027] (partner 0.5 µM)
Method in brief: as §1

Dovitinib + Foretinib = compound: CN1CCN(c2ccc3nc(-c4c(N)c5c(F)cccc5[nH]c4=O)[nH]c3c2)CC1 [Dovitinib] + COc1cc2c(Oc3ccc(NC(=O)C4(C(=O)Nc5ccc(F)cc5)CC4)cc3F)ccnc2cc1OCCCN1CCOCC1 [Foretinib] (partner 0.25 µM)
Method in brief: as §1

Dovitinib = compound: CN1CCN(c2ccc3nc(-c4c(N)c5c(F)cccc5[nH]c4=O)[nH]c3c2)CC1 [Dovitinib]
Method in brief: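 Five library-drug doses, separated by factors of √10, were pinned into 1536-well plates holding lung cancer cell lines after an overnight stay at 37 °C. Cells were fixed, permeabilised and Hoechst-stained in one step after 5 days without medium change, then imaged at 4×. Viability compares treated-well with vehicle-well nuclei, counted in MetaXpress, as a median across plates. Passing plates had control CV below 25% and at least one doubling.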

Dovitinib + Vorinostat = compound: CN1CCN(c2ccc3nc(-c4c(N)c5c(F)cccc5[nH]c4=O)[nH]c3c2)CC1 [Dovitinib] + O=C(CCCCCCC(=O)Nc1ccccc1)NO [Vorinostat] (partner 1 µM)
Method in brief: as §1

Dovitinib + Pemetrexed = compound: CN1CCN(c2ccc3nc(-c4c(N)c5c(F)cccc5[nH]c4=O)[nH]c3c2)CC1 [Dovitinib] + Nc1nc2[nH]cc(CCc3ccc(C(=O)N[C@@H](CCC(=O)O)C(=O)O)cc3)c2c(=O)[nH]1 [Pemetrexed] (partner 0.2 µM)
Method in brief: as §1

Dovitinib + AZD7762 = compound: CN1CCN(c2ccc3nc(-c4c(N)c5c(F)cccc5[nH]c4=O)[nH]c3c2)CC1 [Dovitinib] + NC(=O)Nc1cc(-c2cccc(F)c2)sc1C(=O)N[C@H]1CCCNC1 [AZD7762] (partner 0.2 µM)
Method in brief: as §1

Dovitinib + Trametinib = compound: CN1CCN(c2ccc3nc(-c4c(N)c5c(F)cccc5[nH]c4=O)[nH]c3c2)CC1 [Dovitinib] + CC(=O)Nc1cccc(-n2c(=O)n(C3CC3)c(=O)c3c(Nc4ccc(I)cc4F)n(C)c(=O)c(C)c32)c1 [Trametinib] (partner 0.02 µM)
Method in brief: as §1

Dovitinib + Decitabine = compound: CN1CCN(c2ccc3nc(-c4c(N)c5c(F)cccc5[nH]c4=O)[nH]c3c2)CC1 [Dovitinib] + Nc1ncn([C@H]2C[C@H](O)[C@@H](CO)O2)c(=O)n1 [Decitabine] (partner 2 µM)
Method in brief: as §1

Dovitinib + Olaparib = compound: CN1CCN(c2ccc3nc(-c4c(N)c5c(F)cccc5[nH]c4=O)[nH]c3c2)CC1 [Dovitinib] + O=C(c1cc(Cc2n[nH]c(=O)c3ccccc23)ccc1F)N1CCN(C(=O)C2CC2)CC1 [Olaparib] (partner 8 µM)
Method in brief: as §1

Dovitinib + Palbociclib = compound: CN1CCN(c2ccc3nc(-c4c(N)c5c(F)cccc5[nH]c4=O)[nH]c3c2)CC1 [Dovitinib] + CC(=O)c1c(C)c2cnc(Nc3ccc(N4CCNCC4)cn3)nc2n(C2CCCC2)c1=O [Palbociclib] (partner 0.5 µM)
Method in brief: as §1

NCI-H1623 was tested, and the relative viability (Dovitinib + Tozasertib; first compound 0.02 µM) was 0.458, the relative viability (Dovitinib + Tozasertib; first compound 0.06325 µM) was 0.427 and the relative viability (Dovitinib + Tozasertib; first compound 0.2 µM) was 0.495. The relative viability (Dovitinib + Tozasertib; first compound 0.6325 µM) was 0.445, the relative viability (Dovitinib + Tozasertib; first compound 2 µM) was 0.423 and the relative viability (Dovitinib + Dasatinib; first compound 0.02 µM) was 0.47. It also gave a relative viability (Dovitinib + Dasatinib; first compound 0.06325 µM) of 0.527, a relative viability (Dovitinib + Dasatinib; first compound 0.2 µM) of 0.615 and a relative viability (Dovitinib + Dasatinib; first compound 0.6325 µM) of 0.536. For the same cell line, the relative viability (Dovitinib + Dasatinib; first compound 2 µM) was 0.537, the relative viability (Dovitinib + Luminespib; first compound 0.02 µM) was 0.493 and the relative viability (Dovitinib + Luminespib; first compound 0.06325 µM) was 0.605. The relative viability (Dovitinib + Luminespib; first compound 0.2 µM) was 0.491, the relative viability (Dovitinib + Luminespib; first compound 0.6325 µM) was 0.551 and the relative viability (Dovitinib + Luminespib; first compound 2 µM) was 0.516. The relative viability (Dovitinib + Phenformin; first compound 0.02 µM) was 0.569, the relative viability (Dovitinib + Phenformin; first compound 0.06325 µM) was 0.574 and the relative viability (Dovitinib + Phenformin; first compound 0.2 µM) was 0.602. The relative viability (Dovitinib + Phenformin; first compound 0.6325 µM) was 0.617, the relative viability (Dovitinib + Phenformin; first compound 2 µM) was 0.636 and the relative viability (Dovitinib + OSI-027; first compound 0.02 µM) was 0.476. It also gave a relative viability (Dovitinib + OSI-027; first compound 0.06325 µM) of 0.436, a relative viability (Dovitinib + OSI-027; first compound 0.2 µM) of 0.456 and a relative viability (Dovitinib + OSI-027; first compound 0.6325 µM) of 0.384. For the same cell line, the relative viability (Dovitinib + OSI-027; first compound 2 µM) was 0.384, the relative viability (Dovitinib + Foretinib; first compound 0.02 µM) was 0.81 and the relative viability (Dovitinib + Foretinib; first compound 0.06325 µM) was 0.821. It also gave a relative viability (Dovitinib + Foretinib; first compound 0.2 µM) of 0.958, a relative viability (Dovitinib + Foretinib; first compound 0.6325 µM) of 0.901 and a relative viability (Dovitinib + Foretinib; first compound 2 µM) of 0.893. The relative viability (Dovitinib; 0.02 µM) was 1.07, the relative viability (Dovitinib; 0.06325 µM) was 0.98 and the relative viability (Dovitinib; 0.2 µM) was 0.916. The relative viability (Dovitinib; 0.6325 µM) was 1 and the relative viability (Dovitinib; 2 µM) was 0.892.
Cell Line NCI-H2342 has a relative viability (Dovitinib + Vorinostat; first compound 0.02 µM) of 0.738, a relative viability (Dovitinib + Vorinostat; first compound 0.06325 µM) of 0.71 and a relative viability (Dovitinib + Vorinostat; first compound 0.2 µM) of 0.781. The relative viability (Dovitinib + Vorinostat; first compound 0.6325 µM) was 0.717, the relative viability (Dovitinib + Vorinostat; first compound 2 µM) was 0.735 and the relative viability (Dovitinib + Tozasertib; first compound 0.02 µM) was 0.602. For the same cell line, the relative viability (Dovitinib + Tozasertib; first compound 0.06325 µM) was 0.631, the relative viability (Dovitinib + Tozasertib; first compound 0.2 µM) was 0.488 and the relative viability (Dovitinib + Tozasertib; first compound 0.6325 µM) was 0.488. The relative viability (Dovitinib + Tozasertib; first compound 2 µM) was 0.504, the relative viability (Dovitinib + Pemetrexed; first compound 0.02 µM) was 0.787 and the relative viability (Dovitinib + Pemetrexed; first compound 0.06325 µM) was 0.74. For the same cell line, the relative viability (Dovitinib + Pemetrexed; first compound 0.2 µM) was 0.74, the relative viability (Dovitinib + Pemetrexed; first compound 0.6325 µM) was 0.835 and the relative viability (Dovitinib + Pemetrexed; first compound 2 µM) was 0.777. The relative viability (Dovitinib + AZD7762; first compound 0.02 µM) was 0.561, the relative viability (Dovitinib + AZD7762; first compound 0.06325 µM) was 0.583 and the relative viability (Dovitinib + AZD7762; first compound 0.2 µM) was 0.488. The relative viability (Dovitinib + AZD7762; first compound 0.6325 µM) was 0.8, the relative viability (Dovitinib + AZD7762; first compound 2 µM) was 0.473 and the relative viability (Dovitinib + Trametinib; first compound 0.02 µM) was 1.06. It also gave a relative viability (Dovitinib + Trametinib; first compound 0.06325 µM) of 0.93, a relative viability (Dovitinib + Trametinib; first compound 0.2 µM) of 0.854 and a relative viability (Dovitinib + Trametinib; first compound 0.6325 µM) of 0.67. It also gave a relative viability (Dovitinib + Trametinib; first compound 2 µM) of 0.75, a relative viability (Dovitinib + Decitabine; first compound 0.02 µM) of 0.799 and a relative viability (Dovitinib + Decitabine; first compound 0.06325 µM) of 0.697. It also gave a relative viability (Dovitinib + Decitabine; first compound 0.2 µM) of 0.672, a relative viability (Dovitinib + Decitabine; first compound 0.6325 µM) of 0.756 and a relative viability (Dovitinib + Decitabine; first compound 2 µM) of 0.776. For the same cell line, the relative viability (Dovitinib + Dasatinib; first compound 0.02 µM) was 0.339, the relative viability (Dovitinib + Dasatinib; first compound 0.06325 µM) was 0.324 and the relative viability (Dovitinib + Dasatinib; first compound 0.2 µM) was 0.337. It also gave a relative viability (Dovitinib + Dasatinib; first compound 0.6325 µM) of 0.298, a relative viability (Dovitinib + Dasatinib; first compound 2 µM) of 0.318 and a relative viability (Dovitinib + Luminespib; first compound 0.02 µM) of 0.675. The relative viability (Dovitinib + Luminespib; first compound 0.06325 µM) was 0.711, the relative viability (Dovitinib + Luminespib; first compound 0.2 µM) was 0.741 and the relative viability (Dovitinib + Luminespib; first compound 0.6325 µM) was 0.692. It also gave a relative viability (Dovitinib + Luminespib; first compound 2 µM) of 0.579, a relative viability (Dovitinib + Phenformin; first compound 0.02 µM) of 0.709 and a relative viability (Dovitinib + Phenformin; first compound 0.06325 µM) of 0.561. It also gave a relative viability (Dovitinib + Phenformin; first compound 0.2 µM) of 0.618, a relative viability (Dovitinib + Phenformin; first compound 0.6325 µM) of 0.657 and a relative viability (Dovitinib + Phenformin; first compound 2 µM) of 0.701. For the same cell line, the relative viability (Dovitinib + Olaparib; first compound 0.02 µM) was 0.486, the relative viability (Dovitinib + Olaparib; first compound 0.06325 µM) was 0.415 and the relative viability (Dovitinib + Olaparib; first compound 0.2 µM) was 0.439. It also gave a relative viability (Dovitinib + Olaparib; first compound 0.6325 µM) of 0.486, a relative viability (Dovitinib + Olaparib; first compound 2 µM) of 0.427 and a relative viability (Dovitinib + OSI-027; first compound 0.02 µM) of 0.634. It also gave a relative viability (Dovitinib + OSI-027; first compound 0.06325 µM) of 0.579, a relative viability (Dovitinib + OSI-027; first compound 0.2 µM) of 0.603 and a relative viability (Dovitinib + OSI-027; first compound 0.6325 µM) of 0.685. For the same cell line, the relative viability (Dovitinib + OSI-027; first compound 2 µM) was 0.722, the relative viability (Dovitinib + Palbociclib; first compound 0.02 µM) was 0.621 and the relative viability (Dovitinib + Palbociclib; first compound 0.06325 µM) was 0.517. It also gave a relative viability (Dovitinib + Palbociclib; first compound 0.2 µM) of 0.553, a relative viability (Dovitinib + Palbociclib; first compound 0.6325 µM) of 0.621 and a relative viability (Dovitinib + Palbociclib; first compound 2 µM) of 0.537. For the same cell line, the relative viability (Dovitinib + Foretinib; first compound 0.02 µM) was 1.14, the relative viability (Dovitinib + Foretinib; first compound 0.06325 µM) was 1.02 and the relative viability (Dovitinib + Foretinib; first compound 0.2 µM) was 1.09. It also gave a relative viability (Dovitinib + Foretinib; first compound 0.6325 µM) of 1.17, a relative viability (Dovitinib + Foretinib; first compound 2 µM) of 1.01 and a relative viability (Dovitinib; 0.02 µM) of 1.12. It also gave a relative viability (Dovitinib; 0.06325 µM) of 0.992, a relative viability (Dovitinib; 0.2 µM) of 1.1 and a relative viability (Dovitinib; 0.6325 µM) of 1.04. For the same cell line, the relative viability (Dovitinib; 2 µM) was 1.01.
